Our source for the IC50 values is patent publication EP4818178A1, “PREPARATION AND USE OF PYRIMIDOTHIOPYRANONE KRAS MUTANT PROTEIN INHIBITOR” (Ya Therapeutics Inc, priority 2024, dated 2025).

In one test the target is KRasG12D (Homo sapiens, UniProt P01116, G12D). The test can be described thus: KRAS inhibitory activity test, TR-FRET (inhibition of binding of KRasG12D to GTP, SOS/GTP nucleotide exchange). The following applies: read-out: IC50 values of the compounds for inhibiting KRAS enzymes, G12D. In kind it is biochemical. Put shortly:
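KRasG12D preloaded with Bodipy-GDP plus Tb-streptavidin (3 nM Kras/0.5 nM Tb-SA/30 nM Bodipy-GDP) incubated 1 h at rt with compound (10-point 3-fold series). SOS/GTP mixture then added for 1 h at rt. TR-FRET signal read; IC50 calculated.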
Background: TR-FRET usually uses a lanthanide donor and a delayed reading to cut background.

The subject of test [1] is p-ERK in AsPC-1 (G12D) cells. Put plainly: Cellular p-ERK inhibition assay (HTRF). The following applies: Homo sapiens, ASPC1, 1 hour with compound, read-out: IC50 (nM) of the compounds on the inhibition of p-ERK in tumor cells, AsPC-1. In kind it is cell-based. The procedure: (§1) Cells were seeded in clear 96-well cell culture plates, with 80 µL of cell suspension per well, containing 8000 cells per well. The plates were incubated overnight at 37°C using a CO2 incubator. 2 µL of the compound was added to 78 µL of cell culture medium, mixed well, and then 20 µL of the compound solution was added to the corresponding wells of the cell culture plate. The plates were returned to the CO2 incubator for another hour. After incubation, the cell supernatant was discarded, and 50 µL of the […] was added to the cell culture plate. Add 1X cell lysis buffer to each well and incubate at room temperature with shaking for 30 minutes. Dilute Phospho-ERK1/2 Eu Cryptate antibody and Phospho-ERK1/2 d2 antibody 20-fold using detection buffer. Transfer 16 µL of cell lysis supernatant to each well in a new 384 white microplate, then add 2 µL of Phospho-ERK1/2 Eu Cryptate antibody diluent and 2 µL of Phospho-ERK1/2 d2 antibody diluent. Incubate at room temperature for at least 4 hours. After incubation, read the HTRF excitation (320 nm) and emission (615 nm, 665 nm) using a multilabel analyzer. Calculate the IC50 of the analyte. "++++" indicates IC50≤ 10 nM; "+++" indicates 10 nM < IC50≤ 100 nM; "++" indicates 100 nM < IC50≤ 2000 nM; "+" indicates 2000 nM < IC50. Table 2. IC50 (nM) of the compounds on the inhibition of p-ERK in tumor cells.

Test [2] deals with p-ERK in HCT116 (G13D) cells. The test can be described thus: Cellular p-ERK inhibition assay (HTRF). Type of test: cell-based. The note with it: Homo sapiens, HCT-116, 1 hour with compound, read-out: IC50 (nM) of the compounds on the inhibition of p-ERK in tumor cells, HCT11 6. The procedure: as §1
The subject of test [3] is p-ERK in PSN-1 (G12R) cells. The test can be described thus: Cellular p-ERK inhibition assay (HTRF). The following applies: Homo sapiens, PSN1, 1 hour with compound, read-out: IC50 (nM) of the compounds on the inhibition of p-ERK in tumor cells, PSN-1. Type of test: cell-based. The procedure:
as §1

For the molecule `Cc1cc(O)c(F)c(C2Cc3nc(OC[C@@]45CCCN4C[C@H](F)C5)nc(N4C[C@H]5CC[C@@H](C4)N5)c3CS2(=O)=O)c1C(F)(F)F` (stereo partly drawn) [Compound 2, 4-((1R,5S)-3,8-diazabicyclo[3.2.1]octane-3-yl)-7-(2-fluoro-3-hydroxy-5-methyl-6-(trifluoromethyl)phenyl)-2-(((2R,7AS)-2-fluorotetrahydro-1H-pyrrolazin-7a(5H)-yl)methoxy)-7,8-dihydro-5H-thiopyrano[4,3-d]pyrimidine-6,6-dioxide], the IC50 on KRasG12D was ≤ 10 nM; in test [1], ≤ 10 nM; in test [2], ≤ 10 nM; in test [3], 100 to 2000 nM.
Turning to `Cc1cc(N)nc(C2Cc3nc(OC[C@@]45CCCN4C[C@H](F)C5)nc(N4C[C@H]5CC[C@@H](C4)N5)c3CS2(=O)=O)c1C(F)(F)F` (stereo partly drawn) [Compound 3, 7-(6-amino-4-methyl-3-(trifluoromethyl)pyridin-2-yl)-4-((1R,5S)-3,8-diazabicyclo[3. 2.1]octane-3-yl)-2-(((2R,7AS)-2-fluorotetrahydro-1H-pyrrolazin-7a(5H)-yl)methoxy) -7,8-dihydro-5H-thiopyrano[4,3-d]pyrimidine-6,6-dioxide], the half-maximal inhibitory concentration (IC50) was ≤ 10 nM on KRasG12D, ≤ 10 nM in test [1], ≤ 10 nM in test [2] and 100 to 2000 nM in test [3].
Regarding `Cc1cc(O)nc(C2Cc3nc(OC[C@@]45CCCN4C[C@H](F)C5)nc(N4C[C@H]5CC[C@@H](C4)N5)c3CS2(=O)=O)c1C(F)(F)F` (stereo partly drawn) [Compound 4, 4-((1R,5S)-3,8-diazabicyclo[3.2.1]octane-3-yl)-2-(((2R,7AS)-2-fluorotetrahydro-1H-pyrrolazin-7a(5H)-yl)methoxy)-7-(6-hydroxy-4-methyl-3-(trifluoromethyl)pyridin-2-yl)-7,8-dihydro-5H-thiopyrano[4,3-d]pyrimidine-6,6-dioxide], the IC50 on KRasG12D was ≤ 10 nM; in test [1], ≤ 10 nM; in test [2], ≤ 10 nM; in test [3], 100 to 2000 nM.
As for `Cc1cc(N)nc(C2Cc3nc(OC[C@@]45CCCN4C[C@H](F)C5)nc(N4CCC[C@@](C)(O)C4)c3CS2(=O)=O)c1C(F)(F)F` (stereo partly drawn) [Compound 7, 7-(6-amino-4-methyl-3-(trifluoromethyl)pyridin-2-yl)-2-(((2R,7AS)-2-fluorotetrahydro-1H-pyrrolazin-7a(5H)-yl)methoxy)-4-((R)-3-hydroxy-3-methylpiperidin-1-yl)-7,8-d ihydro-5H-thiopyrano[4,3-d]pyrimidine 6,6-dioxide], the half-inhibitory concentration (IC50) at KRasG12D is ≤ 10 nM; in test [1] it was ≤ 10 nM; in test [2], ≤ 10 nM; in test [3] it was 100 to 2000 nM.
Turning to `Cc1cc(O)nc(C2Cc3nc(OC[C@@]45CCCN4C[C@H](F)C5)nc(N4CCC[C@@](C)(O)C4)c3CS2(=O)=O)c1C(F)(F)F` (stereo partly drawn) [Compound 8, 2-(((2R,7AS)-2-fluorotetrahydro-1H-pyrrolazin-7a(5H)-yl)methoxy)-4-((R)-3-hydroxy-3-methylpiperidin-1-yl)-7-(6-hydroxy-4-methyl-3-(trifluoromethyl)pyridin-2-yl)-7,8-dihydro-5H-thiopyrano[4,3-d]pyrimidine-6,6-dioxide], the half-inhibitory concentration (IC50) on KRasG12D was ≤ 10 nM; in test [1], ≤ 10 nM; in test [2], ≤ 10 nM; in test [3], 100 to 2000 nM.
Turning to “(7S)-7-(6-amino-4-methyl-3-(trifluoromethyl)pyridin-2-yl)-2-(((2R,7AS)-2-fluorotetr ahydro-1H-pyrrolazin-7a(5H)-yl)methoxy)-4-((R)-3-hydroxy-3-methylpiperidin-1-yl) -7,8-dihydro-5H-thiopyrano[4,3-d]pyrimidine-6,6-dioxide [Compound 8A]”, on KRasG12D, the IC50 is ≤ 10 nM.

As a reminder, the IC50 is the concentration needed to halve the response being measured.
